This passage reports IC50 results from US12187723B2 (BRISTOL-MYERS SQUIBB COMPANY, priority 2019, dated 2025).

One assay addresses T1, human TLR8 (Homo sapiens, UniProt Q9NR97).
T1 construct: host or cells: HEK-Blue cells
T1 sequence (Q9NR97 27-1041): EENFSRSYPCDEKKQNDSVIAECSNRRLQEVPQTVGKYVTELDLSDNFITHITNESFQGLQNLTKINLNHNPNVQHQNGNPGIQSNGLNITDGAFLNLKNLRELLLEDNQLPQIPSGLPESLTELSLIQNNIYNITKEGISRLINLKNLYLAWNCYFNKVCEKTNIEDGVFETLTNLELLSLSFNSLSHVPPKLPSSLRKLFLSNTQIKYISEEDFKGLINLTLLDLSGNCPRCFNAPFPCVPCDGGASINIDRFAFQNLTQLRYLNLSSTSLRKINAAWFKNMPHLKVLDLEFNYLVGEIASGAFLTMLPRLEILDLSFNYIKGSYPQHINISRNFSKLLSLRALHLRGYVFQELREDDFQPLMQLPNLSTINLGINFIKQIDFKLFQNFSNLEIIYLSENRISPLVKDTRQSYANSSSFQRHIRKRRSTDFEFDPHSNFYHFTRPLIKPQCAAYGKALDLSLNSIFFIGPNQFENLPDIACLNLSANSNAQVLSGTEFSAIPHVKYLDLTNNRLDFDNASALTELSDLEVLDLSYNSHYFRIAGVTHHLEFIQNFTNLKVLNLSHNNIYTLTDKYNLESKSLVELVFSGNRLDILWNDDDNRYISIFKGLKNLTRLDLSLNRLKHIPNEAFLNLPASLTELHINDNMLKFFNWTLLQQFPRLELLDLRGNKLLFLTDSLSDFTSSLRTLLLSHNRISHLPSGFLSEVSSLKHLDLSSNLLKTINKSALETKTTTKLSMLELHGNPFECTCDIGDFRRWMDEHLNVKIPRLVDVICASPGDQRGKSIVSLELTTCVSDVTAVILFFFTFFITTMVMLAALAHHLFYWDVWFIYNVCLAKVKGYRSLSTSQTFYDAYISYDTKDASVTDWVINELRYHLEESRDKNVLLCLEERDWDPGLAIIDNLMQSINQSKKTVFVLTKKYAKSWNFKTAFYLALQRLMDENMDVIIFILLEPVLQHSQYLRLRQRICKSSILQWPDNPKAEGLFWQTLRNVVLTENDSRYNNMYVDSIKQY
The experiment in a line: TLR8 inhibition reporter assay (HEK-Blue SEAP). The format is cell-based. As to conditions: HEK-Blue cells overexpressing human TLR8, R848 15.9 μM, 22 hour incubation. Put shortly: (§1)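 Dose–response from 0.05 nM to 50 μM was run in HEK-Blue human TLR7, TLR8 and TLR9 reporter cells. After 30 min at room temperature with compound, ligand was added (TLR7 gardiquimod 7.5 μM; TLR8 R848 15.9 μM; TLR9 ODN2006 5 nM) and SEAP measured next day, at 22 h.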
On the technique in general: Reporter assays use an easily measured gene product as a stand-in for the process of interest.

The target of a further assay is T2, human TLR9 (Homo sapiens, UniProt Q9NR96).
T2 construct: host or cells: HEK-Blue cells
T2 sequence (Q9NR96 26-1032): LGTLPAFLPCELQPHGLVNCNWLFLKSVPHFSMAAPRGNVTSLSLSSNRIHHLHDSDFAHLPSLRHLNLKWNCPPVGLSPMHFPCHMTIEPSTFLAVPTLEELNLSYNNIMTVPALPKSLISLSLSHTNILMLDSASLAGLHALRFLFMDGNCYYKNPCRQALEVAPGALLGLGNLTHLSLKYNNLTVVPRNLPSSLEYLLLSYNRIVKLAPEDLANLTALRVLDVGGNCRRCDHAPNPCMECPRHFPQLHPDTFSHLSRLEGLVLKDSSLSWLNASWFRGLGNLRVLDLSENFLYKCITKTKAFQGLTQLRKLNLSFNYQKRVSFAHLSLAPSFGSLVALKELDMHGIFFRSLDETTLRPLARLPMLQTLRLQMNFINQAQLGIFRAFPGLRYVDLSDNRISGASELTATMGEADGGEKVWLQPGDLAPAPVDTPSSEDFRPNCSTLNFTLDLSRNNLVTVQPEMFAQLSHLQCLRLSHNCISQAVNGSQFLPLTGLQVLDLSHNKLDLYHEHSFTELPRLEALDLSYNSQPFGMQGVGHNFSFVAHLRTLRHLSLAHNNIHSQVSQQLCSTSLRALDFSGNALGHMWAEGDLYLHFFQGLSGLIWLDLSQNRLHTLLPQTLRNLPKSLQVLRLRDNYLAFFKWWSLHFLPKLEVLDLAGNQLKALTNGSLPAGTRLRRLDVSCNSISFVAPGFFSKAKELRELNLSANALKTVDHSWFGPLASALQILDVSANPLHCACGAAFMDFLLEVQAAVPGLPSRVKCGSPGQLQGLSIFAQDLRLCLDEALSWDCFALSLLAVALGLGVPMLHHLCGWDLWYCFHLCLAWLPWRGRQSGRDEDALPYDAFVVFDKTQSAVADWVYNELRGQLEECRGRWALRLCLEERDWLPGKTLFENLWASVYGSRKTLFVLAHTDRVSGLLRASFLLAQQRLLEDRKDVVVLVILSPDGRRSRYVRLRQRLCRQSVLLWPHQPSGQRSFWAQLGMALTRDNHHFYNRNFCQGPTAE
The experiment in a line: TLR9 inhibition reporter assay (HEK-Blue SEAP). The format is cell-based. The note with it: HEK-Blue cells overexpressing human TLR9, ODN2006 5 nM, 22 hour incubation. Put shortly: as §1

As usually defined, the IC50 is the concentration at which inhibition is half-maximal. High values mean weaker potency in that assay, low ones greater potency in that assay. For `Cc1cc2c(cc1-c1cc(C)c3ncnn3c1)[nH]c(=O)n2[C@@H]1CCCN(CCCC(F)(F)F)C1` [Example 39, (R)-6-methyl-5-(8-methyl-[1,2,4]triazolo[1,5-a]pyridin-6-yl)-1-(1-(4,4,4-trifluorobutyl)piperidin-3-yl)-1,3-dihydro-2H-benzo[d]imidazol-2-one], the results for the IC50 at human TLR8 and on human TLR9 were 49.3 nM and 10600 nM, respectively.

Consider `COc1cc(-c2cc3[nH]c(=O)n([C@@H]4CCCN(C)C4)c3cc2C)cn2ncnc12` [Example 51, (R)-5-(8-methoxy-[1,2,4]triazolo[1,5-a]pyridin-6-yl)-6-methyl-1-(1-methylpiperidin-3-yl)-1,3-dihydro-2H-benzo[d]imidazol-2-one], for which the values for the 50% inhibitory concentration (IC50) against human TLR8 and at human TLR9 were 21 nM and 8390 nM, respectively.

Turning to `COc1cc(-c2cc3[nH]c(=O)n(C4CCN(CC(=O)N(C)C)CC4)c3cc2C)cn2ncnc12` [Example 86, 2-(4-(5-(8-methoxy-[1,2,4]triazolo[1,5-a]pyridin-6-yl)-6-methyl-2-oxo-2,3-dihydro-1H-benzo[d]imidazol-1-yl)piperidin-1-yl)-N,N-dimethylacetamide], the half-inhibitory concentration (IC50) against human TLR8 is 359 nM; against human TLR9 it was 4930 nM.

On to `COc1cc(-c2cc3[nH]c(=O)n([C@H]4CC[C@@H](NC5CCCCC5)CC4)c3cc2C)cn2ncnc12` [Example 62, 1-((1s,4s)-4-(cyclohexylamino)cyclohexyl)-5-(8-methoxy-[1,2,4]triazolo[1,5-a]pyridin-6-yl)-6-methyl-1,3-dihydro-2H-benzo[d]imidazol-2-one], for which the half-maximal inhibitory concentration (IC50) was 1.85 nM against human TLR8 and 2350 nM at human TLR9.

`Cc1cc2c(cc1-c1cc(C)c3ncnn3c1)[nH]c(=O)n2[C@@H]1CCCN(CC2CCOC2)C1` (stereo partly drawn) [Example 43, 6-methyl-5-(8-methyl-[1,2,4]triazolo[1,5-a]pyridin-6-yl)-1-((3R)-1-((tetrahydrofuran-3-yl)methyl)piperidin-3-yl)-1,3-dihydro-2H-benzo[d]imidazol-2-one]: the values for the IC50 at human TLR8 and on human TLR9 were 57.7 nM and 16500 nM, respectively.

With `COc1cc(-c2ccc3c(c2)[nH]c(=O)n3C2CCN(CC3CCOC3)CC2)cn2ncnc12` (stereo not drawn) [Example 82, 5-(8-methoxy-[1,2,4]triazolo[1,5-a]pyridin-6-yl)-1-(1-((tetrahydrofuran-3-yl)methyl)piperidin-4-yl)-1,3-dihydro-2H-benzo[d]imidazol-2-one], the 50% inhibitory concentration (IC50) came to 2600 nM against human TLR8 and 4770 nM on human TLR9.

On to `COc1cc(-c2cc3[nH]c(=O)n(C4CCN(C)CC4)c3cc2C)cn2ncnc12` [Example 1, 5-(8-methoxy-[1,2,4]triazolo[1,5-a]pyridin-6-yl)-6-methyl-1-(1-methylpiperidin-4-yl)-1,3-dihydro-2H-benzo[d]imidazol-2-one], for which the figures for the IC50 at human TLR8 and at human TLR9 were 54.1 nM and 278 nM, respectively.

Turning to `CCN1CCC[C@@H](n2c(=O)[nH]c3cc(-c4cc(OC)c5ncnn5c4)c(C)cc32)C1` [Example 52, (R)-1-(1-ethylpiperidin-3-yl)-5-(8-methoxy-[1,2,4]triazolo[1,5-a]pyridin-6-yl)-6-methyl-1,3-dihydro-2H-benzo[d]imidazol-2-one], the half-maximal inhibitory concentration (IC50) was found to be 25.7 nM on human TLR8 and 2960 nM at human TLR9.

With `CCCN1CCC[C@@H](n2c(=O)[nH]c3cc(-c4cc(C)c5ncnn5c4)c(C)cc32)C1` [Example 42, (R)-6-methyl-5-(8-methyl-[1,2,4]triazolo[1,5-a]pyridin-6-yl)-1-(1-propylpiperidin-3-yl)-1,3-dihydro-2H-benzo[d]imidazol-2-one], the results for the 50% inhibitory concentration (IC50) against human TLR8 and against human TLR9 were 29.5 nM and 10500 nM, respectively.

As for `CCCN1CCC[C@@H](n2c(=O)[nH]c3cc(-c4cc(OC)c5ncnn5c4)c(C)cc32)C1` [Example 54, (R)-5-(8-methoxy-[1,2,4]triazolo[1,5-a]pyridin-6-yl)-6-methyl-1-(1-propylpiperidin-3-yl)-1,3-dihydro-2H-benzo[d]imidazol-2-one], the IC50 is 24 nM on human TLR8 and 4230 nM against human TLR9.

Regarding `CCC(CC)CN1CCC[C@@H](n2c(=O)[nH]c3cc(-c4cc(OC)c5ncnn5c4)c(C)cc32)C1` [Example 73, (R)-1-(1-(2-ethylbutyl)piperidin-3-yl)-5-(8-methoxy-[1,2,4]triazolo[1,5-a]pyridin-6-yl)-6-methyl-1,3-dihydro-2H-benzo[d]imidazol-2-one], the results for the IC50 against human TLR8 and on human TLR9 were 73.6 nM and 8070 nM, respectively.

Consider `COc1cc(-c2ccc3c(c2)[nH]c(=O)n3C2CCN(CC3CCOCC3)CC2)cn2ncnc12` [Example 78, 5-(8-methoxy-[1,2,4]triazolo[1,5-a]pyridin-6-yl)-1-(1-((tetrahydro-2H-pyran-4-yl)methyl)piperidin-4-yl)-1,3-dihydro-2H-benzo[d]imidazol-2-one], for which the IC50 at human TLR8 was 1380 nM; against human TLR9 it was 2850 nM.
